In ChEMBL document CHEMBL3272236, “Synthesis and evaluation of 1,omega-diaryl-l,omega-alkanediamines related to the fibrinolytic bis(tetrahydroisoquinolines) and bis(benzylamines)” (1976):

What follows are compounds tested on Rattus norvegicus (assay: Fibrinolytic activity in ip dosed rat assessed as blood clot lysis for 4 hrs). Settings: not given.
Assay type: functional

SMILES	ED50
COc1ccc(C(N)CCCCCCCC2NCCc3cc(OC)c(OC)cc32)cc1OC.Cl (racemic; 31b)	0.5 mg/kg

Same assay, conditions: Rattus norvegicus, Blood clot, ip, 4 h; read-out: ED50

SMILES	ED50
COc1cc2c(cc1OC)C(CCCCC1NCCc3cc(OC)c(OC)cc31)NCC2.Cl (centres undefined)	0.3 mg/kg
COc1ccc2c(c1)CCNC2CCCCC1NCCc2cc(OC)ccc21.Cl (centres undefined)	2 mg/kg
COc1ccc2c(c1)CCNC2CCCCCCCC1NCCc2cc(OC)ccc21.Cl (centres undefined)	6 mg/kg
COc1ccc(C(N)CCCCC(N)c2ccc(OC)c(OC)c2)cc1OC.Cl (centres undefined)	0.4 mg/kg
COc1cc2c(cc1OC)C(CCCCC1NCCCc3cc(OC)c(OC)cc31)NCCC2.Cl (centres undefined)	0.7 mg/kg
COc1ccc2[nH]c3c(c2c1)CCNC3CCCCC1NCCc2c1[nH]c1ccc(OC)cc21.Cl (centres undefined)	6 mg/kg
COc1ccc2[nH]c3c(c2c1)CCNC3CCCCCCCC1NCCc2c1[nH]c1ccc(OC)cc21.Cl (centres undefined)	2 mg/kg
COc1ccc(C(N)CCCCC2NCCc3cc(OC)c(OC)cc32)cc1OC.Cl (centres undefined)	0.9 mg/kg
COc1ccc(C(N)CCCCCCC2NCCc3cc(OC)c(OC)cc32)cc1OC.Cl (centres undefined)	1 mg/kg
COc1ccc(CC(N)CCCCC(N)Cc2ccc(OC)c(OC)c2)cc1OC.Cl (centres undefined)	15 mg/kg
COc1cc(CCCCCCc2cc(OC)c(OC)cc2C(C)N)c(C(C)N)cc1OC.Cl (centres undefined)	4 mg/kg
COc1ccc(C(N)CCCCCCCC2NCCc3cc(OC)c(OC)cc32)cc1OC.Cl (racemic; 31a)	0.7 mg/kg
NCCc1c[nH]c2ccc(O)cc12 [SEROTONIN]	1 mg/kg
